Data as given in patent US4866090A, “Novel HMG-CoA reductase inhibitors” (Merck & Co., Inc., priority 1988, dated 1989).

Target: T1, HMG-CoA reductase (Rattus norvegicus, UniProt P51639)
T1 sequence (P51639 1-887): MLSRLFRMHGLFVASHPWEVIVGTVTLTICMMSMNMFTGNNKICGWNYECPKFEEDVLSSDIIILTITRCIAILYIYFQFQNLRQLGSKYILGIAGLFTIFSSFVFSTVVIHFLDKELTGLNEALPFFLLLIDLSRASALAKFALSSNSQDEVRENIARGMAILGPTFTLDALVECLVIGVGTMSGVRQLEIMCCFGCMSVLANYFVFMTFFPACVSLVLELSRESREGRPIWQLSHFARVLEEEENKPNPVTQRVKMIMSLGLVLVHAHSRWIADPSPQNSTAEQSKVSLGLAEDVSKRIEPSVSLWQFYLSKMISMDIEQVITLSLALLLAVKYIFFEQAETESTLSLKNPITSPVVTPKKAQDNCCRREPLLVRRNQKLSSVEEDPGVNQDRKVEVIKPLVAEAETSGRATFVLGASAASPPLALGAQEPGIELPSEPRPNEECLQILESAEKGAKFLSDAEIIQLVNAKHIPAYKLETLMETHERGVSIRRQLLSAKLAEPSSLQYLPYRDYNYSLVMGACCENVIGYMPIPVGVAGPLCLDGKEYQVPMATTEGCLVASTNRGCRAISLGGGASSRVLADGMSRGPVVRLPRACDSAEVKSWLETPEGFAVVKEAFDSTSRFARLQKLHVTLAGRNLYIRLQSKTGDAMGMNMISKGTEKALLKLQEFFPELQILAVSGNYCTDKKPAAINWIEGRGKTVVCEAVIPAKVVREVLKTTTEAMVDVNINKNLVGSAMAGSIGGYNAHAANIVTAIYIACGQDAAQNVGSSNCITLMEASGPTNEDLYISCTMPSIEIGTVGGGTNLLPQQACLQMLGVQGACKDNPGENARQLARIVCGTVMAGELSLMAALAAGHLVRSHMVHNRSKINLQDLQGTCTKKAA
Assay: intrinsic HMG-CoA reductase inhibition, in vitro protocol of J. Med. Chem., 28, p. 347-358 (1985)
Assay type: biochemical
Details: IC50 of test compound compared with that of compactin determined simultaneously; compactin = 100
Protocol: The intrinsic HMG-CoA reductase inhibition activity of the claimed compounds is measured in the in vitro protocol published in J. Med. Chem., 28, p. 347-358 (1985).
For estimation of relative inhibitory potencies, compactin (i.e., mevastatin) was assigned a value of 100 and the IC50 value of the test compound was compared with that of compactin determined simultaneously in the published in vitro protocol.

Relative Potency	SMILES
170	CCC(C)(C)C(=O)O[C@H]1CC2(CC2)C[C@@H]2CC[C@H](C)[C@H](CC[C@@H]3C[C@@H](O)CC(=O)O3)[C@H]21 [1,1-dimethylpropyl --CH2 CH2 --]
111	CCC(C)(C)C(=O)O[C@H]1CC(C)(C)C[C@@H]2CC[C@H](C)[C@H](CC[C@@H]3C[C@@H](O)CC(=O)O3)[C@H]21 [1,1-dimethylpropyl CH3 CH3, 6(R)-[2-(8(S)-(2,2-Dimethylbutyryloxy)-2(S),6,6-trimethyl-1,2,3,4,4a(S),5,6,7,8,8a(S)-decahydronaphthyl-1(S)]ethyl]-4(R) hydroxy-3,4,5,6-tetrahydro-2H pyran-2-one]
